Experimental data published in PubChem BioAssay (NCI).
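Interpolation was linear, between the two tested concentrations surrounding the appropriate level; five concentrations were tested over 48 hours in 96-well plates. Abbreviation: GI50, concentration required for 50% inhibition of growth. TGI denotes the concentration required for complete inhibition of growth.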

Key:
Test in all cases: NCI anticancer screen, dose series, 48 h
SK-MEL-28 melanoma = test system: SK-MEL-28 melanoma
HS 578T breast = test system: HS 578T breast
BT-549 breast = test system: BT-549 breast
A549 NSCLC = test system: A549 NSCLC
HCT-15 colon = test system: HCT-15 colon
COLO 205 colon = test system: COLO 205 colon
SNB-19 CNS = test system: SNB-19 CNS
DU-145 prostate = test system: DU-145 prostate
HCC-2998 colon = test system: HCC-2998 colon
K-562 leukemia = test system: K-562 leukemia

SMILES | TGI (SK-MEL-28 melanoma) | TGI (HS 578T breast) | TGI (BT-549 breast) | TGI (A549 NSCLC) | TGI (HCT-15 colon) | TGI (COLO 205 colon) | TGI (SNB-19 CNS) | TGI (DU-145 prostate) | TGI (HCC-2998 colon) | TGI (K-562 leukemia) | GI50 (SK-MEL-28 melanoma) | GI50 (HS 578T breast) | GI50 (BT-549 breast) | GI50 (A549 NSCLC) | GI50 (HCT-15 colon) | GI50 (HCC-2998 colon) | GI50 (K-562 leukemia) | GI50 (SNB-19 CNS) | GI50 (DU-145 prostate)
CCCCC1=C(C(=O)N2CCOCC2)C2(OCCO2)C1=O | 94.8 µM | > 100 µM | 78.8 µM | 87.7 µM | 40.3 µM | 40.2 µM | 43.2 µM | > 100 µM |  |  |  |  |  |  |  |  |  |  | 
CC(C)N1CC2CC(CN(C(=O)c3ccccc3)C2)C1 | > 100 µM |  |  | > 100 µM | > 100 µM | > 100 µM | > 100 µM |  | > 100 µM | > 100 µM |  |  |  |  |  |  |  |  | 
Cc1cc(S(=O)(=O)Nc2n[nH]c(-c3ccccn3)n2)c(S)cc1Cl | > 100 µM | 86.6 µM | 79.6 µM | 41.9 µM | 20.9 µM | 90.6 µM | 60.6 µM | 96 µM | 30.2 µM |  |  |  |  |  |  |  |  |  | 
COc1cc(C(c2c(O)c3ccccc3oc2=O)c2c(O)c3ccccc3oc2=O)cc(Br)c1O | 59.2 µM | 51.8 µM | 32.5 µM | 35.6 µM | 36.4 µM | 32 µM | 36.1 µM | 33.6 µM |  | > 100 µM |  |  |  |  |  |  |  |  | 
COc1cccc2c1C(=O)c1c(O)c3c(c(O)c1C2=O)C[C@H](O)C[C@@H]3OC1CC(N)C(O)C(C)O1 (stereo not given in full) | 9.13 µM | 5.97 µM | 16 µM | 14.1 µM | 58 µM | 10.3 µM | 15.2 µM | 11.6 µM |  | 10.1 µM |  |  |  |  |  |  |  |  | 
COc1ccc2nc(/C(N)=C\C#N)ccc2c1 | > 100 µM | > 100 µM |  | > 100 µM | > 100 µM | > 100 µM | > 100 µM | > 100 µM |  | > 100 µM |  |  |  |  |  |  |  |  | 
CCOC(=O)C1(C#N)C(c2ccccc2)CC(O)(c2ccc(Cl)cc2)C(C(=O)c2ccc(Cl)cc2)C1c1ccccc1 (stereo not given) | > 100 µM |  |  | > 100 µM | > 100 µM | > 100 µM | 90.8 µM |  | > 100 µM |  |  |  |  |  |  |  |  |  | 
Cc1cc(C)c(S(=O)(=O)N(CCCN)OCCCON(CCCN)S(=O)(=O)c2c(C)cc(C)cc2C)c(C)c1 | 3.94 µM | 3.16 µM | 8.64 µM | 3.3 µM | 34.8 µM | 3.5 µM | 3.17 µM | 3.15 µM |  | > 22.5 µM |  |  |  |  |  |  |  |  | 
N#C/C(=C/n1c(=S)[nH]c2ccc([N+](=O)[O-])cc21)C(N)=O | > 100 µM | > 100 µM |  | > 100 µM | > 100 µM | > 100 µM | > 100 µM | > 100 µM |  |  |  |  |  |  |  |  |  |  | 
CS(=O)(=O)Nc1ccc2c(c1)N(S(C)(=O)=O)CC2CCl (stereo not given) | > 100 µM | > 100 µM | > 100 µM | > 100 µM | > 100 µM | > 100 µM |  | > 100 µM | > 100 µM | > 100 µM |  |  |  |  |  |  |  |  | 
Nc1nc(Cl)cc(NCC2(O)CC2)n1 | > 100 µM | > 100 µM | > 100 µM | > 100 µM | > 100 µM |  | > 100 µM | > 100 µM | > 100 µM | > 100 µM |  |  |  |  |  |  |  |  | 
COC(=O)[C@@H]1CCCCC[C@H]2C(CO)=C(C)C(=O)C12 (stereo not given in full) | > 100 µM |  |  | > 100 µM | > 100 µM | > 100 µM | > 100 µM |  | > 100 µM | > 100 µM |  |  |  |  |  |  |  |  | 
c1ccc2c(c1)Sc1nccc3ccnc-2c13 | > 100 µM | 65.3 µM | > 100 µM |  |  | > 100 µM | > 100 µM | > 100 µM | > 100 µM | > 100 µM |  |  |  |  |  |  |  |  | 
c1cncc(CC2(c3cc4ccccc4[nH]3)OCCO2)c1 | > 100 µM | > 100 µM | > 100 µM | > 100 µM | > 100 µM | > 100 µM | > 100 µM | > 100 µM | > 100 µM |  |  |  |  |  |  |  |  |  | 
CSc1cc(=O)n2c3ccccc3c3ccnc1c32 | > 100 µM |  |  | > 100 µM | > 100 µM | > 100 µM | > 100 µM |  | > 100 µM | > 100 µM |  |  |  |  |  |  |  |  | 
O=C1C=CC(=O)N1n1c(-c2ccccc2)n[nH]c1=O |  | > 100 µM | > 100 µM | > 100 µM | > 100 µM | > 100 µM |  | > 100 µM | > 100 µM | > 100 µM |  |  |  |  |  |  |  |  | 
Cc1ccc(C(=O)N/N=C(\N=Nc2ccccc2)c2ccc(N(C)C)cc2)cc1 | > 100 µM |  | > 100 µM | > 100 µM | > 100 µM | > 100 µM | > 100 µM | > 100 µM | > 100 µM | > 100 µM |  |  |  |  |  |  |  |  | 
O=c1[nH]c2nc3ccccc3nc2[nH]c1=O | > 100 µM | > 100 µM |  | > 100 µM | > 100 µM | > 100 µM | > 100 µM | > 100 µM | > 100 µM | > 100 µM |  |  |  |  |  |  |  |  | 
CC(C)(C)OC(=O)NC(Cc1ccccc1)NC(=O)NC(=O)OCc1ccccc1 (stereo not given) | > 100 µM | > 100 µM | > 100 µM | > 100 µM | > 100 µM |  | > 100 µM | > 100 µM | > 100 µM | > 100 µM |  |  |  |  |  |  |  |  | 
O=c1nc2c(c(-c3ccc(Br)cc3)[nH]1)COC/C2=C\c1ccc(Br)cc1 | > 50 µM | > 50 µM | > 50 µM |  | > 50 µM | > 50 µM | > 50 µM | > 50 µM | > 50 µM | > 50 µM |  |  |  |  |  |  |  |  | 
O=C1N=C2SC(=S)NC(=S)N2NC12c1ccccc1-c1ccccc12 |  | > 10 µM | > 10 µM | > 10 µM | > 10 µM | > 10 µM |  | > 10 µM | > 10 µM | > 10 µM |  |  |  |  |  |  |  |  | 
COc1cc(-c2n/c(=C\c3c(O)[nH]c4ccc(Cl)cc34)cc3c2=Nc2ccccc2-3)ccc1F | 5.02 µM | 5.92 µM | 3.84 µM | 3.38 µM | 6.98 µM |  | 4.11 µM | 4.8 µM | 8.81 µM | 5.98 µM | 2.27 µM | 2.07 µM | 2.06 µM | 1.76 µM | 2.49 µM | 2.94 µM | 2.22 µM | 1.87 µM | 2.18 µM
CCC1=C(C(C)=O)[C@@H]2CCCCC[C@@H](C(=O)OC)C2C1=O (stereo not given in full) | > 100 µM |  |  | > 100 µM | > 100 µM | > 100 µM | > 100 µM |  | > 100 µM | > 100 µM |  |  |  |  |  |  |  |  | 
COc1ccc(Nc2nc(N)c(C(=O)c3c[nH]c4ccccc34)s2)cc1 | > 91.6 µM |  | > 40.5 µM | > 61.3 µM | 8.91 µM | 4.06 µM | > 100 µM | 10.2 µM |  |  |  |  |  |  |  |  |  |  | 
